Data from EP0552417B1, “Cyclic peptides and use thereof” (priority 1991, dated 1993).
Non-standard residues stand in square brackets, D forms with d. Residues, ends and D or L forms follow the SMILES beside them. *: point of attachment. 1Nal = N[C@@H](Cc1cccc2ccccc12)C(=O)O; Bn = c1ccc(C*)cc1

Key:
[1] = molecular target: T1, endothelin receptor A (ETA) (Sus scrofa, UniProt Q29010); experiment: Assay of affinity for receptor (1): binding activity on ETA receptor, 125I-labeled endothelin-1, porcine heart membrane fraction; design: key: relative specific activity; reference cyclic pentapeptide ETA binding = 1.0; settings: specific activity, taking the binding activity of control cyclo[-D-Glu-Ala-D-aIle-Leu-D-Trp-] on receptor A as 1.0, 25°C, 1 hour
T1 construct: A membrane fraction prepared from the porcine heart; from tissue; host or cells: porcine heart membrane fraction
T1 sequence (Q29010 21-427): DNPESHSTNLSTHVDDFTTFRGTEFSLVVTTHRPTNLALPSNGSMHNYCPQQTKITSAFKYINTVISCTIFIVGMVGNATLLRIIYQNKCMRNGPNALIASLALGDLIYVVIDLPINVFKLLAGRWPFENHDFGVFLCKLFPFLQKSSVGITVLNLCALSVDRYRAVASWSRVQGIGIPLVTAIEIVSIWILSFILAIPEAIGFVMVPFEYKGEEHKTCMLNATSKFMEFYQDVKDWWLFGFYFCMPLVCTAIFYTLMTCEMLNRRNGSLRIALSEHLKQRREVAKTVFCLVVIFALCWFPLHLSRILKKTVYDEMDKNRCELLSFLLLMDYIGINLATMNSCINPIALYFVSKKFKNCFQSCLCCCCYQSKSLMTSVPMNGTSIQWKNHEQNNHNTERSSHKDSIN
In short: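 Porcine heart membranes (0.15 mg/ml) incubated with 125I-endothelin-1 and test peptide for 1 h at 25°C, then centrifuged; pellet-bound radioactivity counted by gamma counter. Values given as specific activity relative to reference cyclo[-D-Glu-Ala-D-aIle-Leu-D-Trp-], set at 1.0.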

[2] = molecular target: T2, NK2 receptor (Bos taurus, UniProt P05363); experiment: Assay of affinity for receptor (3): binding inhibiting activity on NK2 receptor, 125I-neurokinin A, membrane fraction of bovine third stomach inner wall; settings: 125I-NKA, 25°C, 3 hours
T2 construct: The membrane fraction containing the receptor was prepared from the inner wall of the bovine third stomach; tissue Kyoto Chuo Chikusan Fukuseibutsu Oroshi Kyoukai (tissue); host or cells: inner wall of bovine third stomach, membrane fraction
T2 sequence (P05363 1-384): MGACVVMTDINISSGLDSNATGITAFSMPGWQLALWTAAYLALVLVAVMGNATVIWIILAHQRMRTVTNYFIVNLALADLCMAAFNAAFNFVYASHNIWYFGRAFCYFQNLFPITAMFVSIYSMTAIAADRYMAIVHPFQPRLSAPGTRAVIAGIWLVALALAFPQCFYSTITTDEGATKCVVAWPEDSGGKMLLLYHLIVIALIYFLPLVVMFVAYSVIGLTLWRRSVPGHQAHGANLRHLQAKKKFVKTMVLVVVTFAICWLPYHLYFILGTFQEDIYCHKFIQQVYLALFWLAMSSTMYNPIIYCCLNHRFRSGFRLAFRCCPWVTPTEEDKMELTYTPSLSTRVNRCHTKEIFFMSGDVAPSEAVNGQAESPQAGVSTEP
Method: Assay of Affinity for Receptor (3) ... Binding Inhibiting Activity on NK2 Receptor
The method of Paul L. M. Van Giersbergen et al. [Proc. Natl. Acad. Sci. U.S.A., 88, 1661 (1991) was modified for this assay. The membrane fraction containing the receptor was prepared from the inner wall of the bovine third stomach (purchased from Kyoto Chuo Chikusan Fukuseibutsu Oroshi Kyoukai).
The inner wall of the bovine third stomach stored at-80°C was cut to 1 cm X 1 cm or less, and disrupted in 3 liters/kg of 50 mM Tris-HCl buffer (pH 7.4) supplemented with 120 mM sodium chloride, 5 mM potassium chloride, 0.02% BSA and 5% sucrose, using a polytron homogenizer (Kinematika, Germany). Then, the disrupted product was centrifuged at 1,000 X g for 10 minutes. The supernatant was further centrifuged at 45,000 X g for 20 minutes. The precipitate was suspended in 200 ml of 50 mM Tris-HCl buffer (pH 7.4) supplemented with 300 mM potassium chloride, 10 mM ethylenediaminetetraacetic acid, 0.1 mM phenylmethylsulfonium fluoride and 0.02% BSA, and gently stirred under ice cooling for 60 minutes. The suspension was centrifuged at 45,000 X g for 20 minutes. The precipitate was washed with 200 ml of 50 mM Tris-HCl buffer (pH 7.4), and stored in the frozen state at -40°C as a receptor sample.
This sample was suspended in a reaction buffer solution [50 mM Tris-HCl buffer (pH 7.4), 0.02% bovine serum albumin and 4 mM manganese chloride] so as to give a protein concentration of 0.7 mg/ml, and 100 µl thereof was used for reaction. A test sample and ^125I-NKA (0.61 KBq, ^125I-neurokinin A, 81.4 TBq/mmol, Du Pont/NEN Research Products, U.S.A.) were also added, and reacted in 0.2 ml of the reaction buffer solution at 25°C for 3 hours. The reaction mixture was rapidly filtered through a glass filter (GF/B, Whatman, U.S.A.) using a cell harvester (Type 290PHD, Cambridge Technology Inc.) to terminate the reaction, and washed 3 times with 250 µl of 50 mM Tris-HCl buffer (pH 7.4) supplemented with 0.02% bovine serum albumin. The radioactivity left on the filter was measured with a gamma-ray counter. Results are shown in Table 1 as the binding inhibiting activity (IC50, unit: µM) on the NK2 receptor.

Row | Compound | Binding Activity on ET Receptor (R. act.) ETA [1] | IC50 [2] [nM]
1 | CC(C)C[C@@H]1NC(=O)[C@@H](CC(C)C)NC(=O)[C@H](CC(=O)O)NC(=O)[C@H](Cc2c[nH]c3ccccc23)NC(=O)[C@@H](CC(=O)O)NC(=O)[C@@H](Cc2c[nH]c3ccccc23)NC1=O [Example 8, cyclo[-D-Asp-Trp-Asp-D-Leu-Leu-D-Trp-]] (cyclo(D[dL]L[dW][dD]W)) | 76 | 6400
2 | CC(C)C[C@@H]1NC(=O)[C@@H](CC(C)C)NC(=O)[C@H](CC(=O)O)NC(=O)[C@H](Cc2cccc3ccccc23)NC(=O)[C@@H](CC(=O)O)NC(=O)[C@@H](Cc2c[nH]c3ccccc23)NC1=O [Example 23, Cyclo[-D-Asp-Nal(1)-Asp-D-Leu-Leu-D-Trp-]] (cyclo([1Nal]D[dL]L[dW][dD])) | 8.3 | 2100
3 | CC(C)C[C@@H]1NC(=O)[C@@H](CC(C)C)NC(=O)[C@H](CCC(=O)O)NC(=O)[C@H](Cc2c[nH]c3ccccc23)NC(=O)[C@@H](CC(=O)O)NC(=O)[C@@H](Cc2c[nH]c3ccccc23)NC1=O [Example 34, Cyclo[-D-Asp-Trp-Glu-D-Leu-Leu-D-Trp-]] (cyclo(E[dL]L[dW][dD]W)) | 20 | 7400
4 | CC(C)C[C@@H]1NC(=O)[C@H](Cc2c[nH]c3ccccc23)NC(=O)[C@@H](CC(=O)O)NC(=O)[C@@H](Cc2c[nH]c3ccccc23)NC(=O)[C@H](CC(C)C)NC(=O)[C@@H](CC(C)C)NC1=O [Example 35, Cyclo[-D-Asp-Trp-Leu-D-Leu-Leu-D-Trp-]] (cyclo(L[dL]L[dW][dD]W)) | 9.1 | 52

Next, values leading:

Row | Binding Activity on ET Receptor (R. act.) ETA [1] | IC50 [2] [nM] | Compound
5 | 17 | 1100 | CC(C)C[C@@H]1NC(=O)[C@@H](CC(C)C)NC(=O)[C@@H]2CCCN2C(=O)[C@H](Cc2c[nH]c3ccccc23)NC(=O)[C@@H](CC(=O)O)NC(=O)[C@@H](Cc2c[nH]c3ccccc23)NC1=O [Example 36, Cyclo[-D-Asp-Trp-Pro-D-Leu-Leu-D-Trp-]] (cyclo(L[dW][dD]WP[dL]))
6 | 24 | 280 | CC(C)C[C@@H]1NC(=O)[C@@H](CC(C)C)NC(=O)[C@H](CO)NC(=O)[C@H](Cc2c[nH]c3ccccc23)NC(=O)[C@@H](CC(=O)O)NC(=O)[C@@H](Cc2c[nH]c3ccccc23)NC1=O [Example 37, Cyclo[-D-Asp-Trp-Ser-D-Leu-Leu-D-Trp-]] (cyclo(L[dW][dD]WS[dL]))
7 | 13 | 70 | CC(C)C[C@@H]1NC(=O)[C@@H](CC(C)C)NC(=O)[C@H](COCc2ccccc2)NC(=O)[C@H](Cc2c[nH]c3ccccc23)NC(=O)[C@@H](CC(=O)O)NC(=O)[C@@H](Cc2c[nH]c3ccccc23)NC1=O [Example 38, Cyclo[-D-Asp-Trp-Ser(Bzl)-D-Leu-Leu-D-Trp-]] (cyclo(L[dW][dD]WS(Bn)[dL]))
